Here are results for eleven molecules from publication PMC8983860, “A Novel Small Molecular Inhibitor of DNMT1 Enhances the Antitumor Effect of Radiofrequency Ablation in Lung Squamous Cell Carcinoma Cells” (Frontiers in Pharmacology, 2022).

For one assay, the target named is DNMT-1 (Homo sapiens, UniProt P26358). Nature of the assay: In vitro activity test on DNMT-1. The following applies: for IC50: in vitro activity on DNMT1, Table 1; for In vitro activity (IC50) compared to ZINC15602870: comparison in words. It counts as biochemical. The protocol:
AutoDock Vina was used to screen the 72,000 compounds using the ligands in the original protein as the docking template. […] Continuous fine screening was performed with AutoDock Vina to obtain the top 50 compounds which were then analyzed by cluster analysis. Next, the representative compounds with large structural differences were empirically selected. Finally, a total of 12 representative compounds were selected (see supporting document), purchased from Medrige or synthesized by ourselves.
The side chains of compounds 03 and 07 were then introduced onto position R2 of the new parent ring (Table 1). In vitro activity tests were then performed as previously described ([Datta et al., 2009]).

The test system of the next assay is H226 cells. Nature of the assay: Subcellular fractionation and Western blotting of H226 cells. The following applies: immunoblotting. It counts as cell-based, human. The protocol:
The H226 cells were cultured in Dulbecco’s modified Eagle’s medium (DMEM) with 10% (v/v) fetal bovine serum (FBS). The cells were transfected with plasmids or treated with the appropriate concentration of iDNMT [low dose (0.1 μmol/L), medium dose (1 μmol/L), and high dose (10 μmol/L)]. The H226 cells were then harvested for subcellular fractionation assays as previously described. The H226 cells were split into the nuclear subfraction or the cytoplasmic subfraction ([Lu et al., 2013]; [Yang et al., 2013]; [Feng et al., 2018b]). NICD, PSEN-1, and DNMT1 expression levels were examined in the subfractions by immunoblotting using antibodies from Santa Cruz (United States) or Abcam (United Kingdom). We chose β-actin and lamin A as the cytoplasmic and nuclear loading controls or indicators, respectively ([Lu et al., 2013]; [Yang et al., 2013]; [Feng et al., 2018b]).
To further confirm the specificity of iDNMT on the Notch pathway, we analyzed the cytoplasm–nuclear subfraction using immunoblotting. […] The methylation rates of the miR-27-3p′s promoter region and expression level of DNMT-1 or miR-27-3p in cell samples of Figure 5B are shown in Supplementary Figure S1. Therefore, iDNMT represses PSEN-1 expression to inhibit cleavage of Notch, thus inhibiting NICD accumulation in H226 cells.

A further assay concerns Notch pathway. As to the kind of experiment: Expression of Notch pathway-related factors (qPCR) and methylation of the miR-27-3p promoter (BSP-NGS) after iDNMT treatment. It is filed as cell-based, human. The protocol:
The genomic DNA samples from the clinical specimens, tumor tissues, and cultured cells were extracted and isolated using the DNeasy Blood & Tissue Kit (Cat No. 69504; QIAGEN, Hilden, Germany) and treated with the EpiTect Bisulfite Kit (Cat No. 59104; QIAGEN) according to the manufacturer’s instructions. Next, the polymerase chain reactions (PCRs) were performed using DNA samples and a high-fidelity polymerase, Platinum II Hot-Start PCR Master Mix (Cat No. 14000012; Thermo Fisher Scientific), to amplify the selected promoter region (chr19: 13836440-13838517, negative chain [-], the selected promoter region of has-pre-miR-27) of miR-27 with CpG islands (chr19: 13,835,599-13,835,325, negative chain [-]). […] Following PCR experiments, the products were directly sequenced by using Ion Torrent PGM, and the methylation rates were calculated as previously described ([Ma et al., 2020]; [Wang et al., 2021b]; [He et al., 2021]).
For quantitative PCR (qPCR) analysis, the total RNA was extracted from the clinical specimens, LSCC cells, or subcutaneous tumor tissues as described by Ma et al. (2020) before reverse transcription to generate cDNA. The expression of DNMT1, Notch-related factors, and has-pre-miR-27 was examined by real-time quantitative fluorescence PCR (RT-PCR/qPCR) ([Ma et al., 2016]; [Yang et al., 2020]; [Du et al., 2021]) with β-actin as the loading control. […]

The next assay deals with H226 LSCC cells. As to the kind of experiment: Subcutaneous H226 LSCC tumors in nude mice, oral iDNMT with or without RFA. It counts as in vivo. As for the experimental part:
The antitumor efficacy of iDNMT, RFA, and iDNMT1 + RFA on LSCC tissues was examined in nude mice. Nude mice aged 5 weeks were obtained from the Si-Bei-Fu Corporation (Beijing, China), and they were fed under specific pathogen-free conditions. The H226 cells (approximately 5 × 10^6 cells/animal), which were transfected with plasmids, were subcutaneously injected into nude mice to generate tumor tissues ([Feng et al., 2019]; [Sun et al., 2019]). The dimensions of these tumors were measured using a Vernier caliper every 7 days. Tumor volumes were calculated according to the following formula: tumoral width × tumoral width × tumoral length/2 ([Feng et al., 2019]; [Sun et al., 2019]). For RFA treatment or RFA + iDNMT treatment, RFA of the LSCC subcutaneous tumors was performed using a thyroid-ablation needle (Cat No.: UniBlate 700-103587 17G, RITA Company, Crystal Lake, IL, United States) when the tumoral volume reached ∼500 mm^3. The conditions for RFA were as follows: 2 min RFA-duration with a series of different temperatures, 65, 60, or 55°C. In addition, iDNMT was administered orally at 10, 5, 2, or 1 mg/kg ([Xie et al., 2018a]; [Xie et al., 2018b]; [Zhou et al., 2021]). The formulation of iDNMT and the oral administration were performed as previously described ([Zou et al., 2021a]; [Zou et al., 2021b]; [Wang et al., 2021c]; [Jie et al., 2021]). Subcutaneous tumors were separated from the animals, and the weights of these tumors were measured using a precision-balance.

DNMT-1, sequence (P26358 whole entry): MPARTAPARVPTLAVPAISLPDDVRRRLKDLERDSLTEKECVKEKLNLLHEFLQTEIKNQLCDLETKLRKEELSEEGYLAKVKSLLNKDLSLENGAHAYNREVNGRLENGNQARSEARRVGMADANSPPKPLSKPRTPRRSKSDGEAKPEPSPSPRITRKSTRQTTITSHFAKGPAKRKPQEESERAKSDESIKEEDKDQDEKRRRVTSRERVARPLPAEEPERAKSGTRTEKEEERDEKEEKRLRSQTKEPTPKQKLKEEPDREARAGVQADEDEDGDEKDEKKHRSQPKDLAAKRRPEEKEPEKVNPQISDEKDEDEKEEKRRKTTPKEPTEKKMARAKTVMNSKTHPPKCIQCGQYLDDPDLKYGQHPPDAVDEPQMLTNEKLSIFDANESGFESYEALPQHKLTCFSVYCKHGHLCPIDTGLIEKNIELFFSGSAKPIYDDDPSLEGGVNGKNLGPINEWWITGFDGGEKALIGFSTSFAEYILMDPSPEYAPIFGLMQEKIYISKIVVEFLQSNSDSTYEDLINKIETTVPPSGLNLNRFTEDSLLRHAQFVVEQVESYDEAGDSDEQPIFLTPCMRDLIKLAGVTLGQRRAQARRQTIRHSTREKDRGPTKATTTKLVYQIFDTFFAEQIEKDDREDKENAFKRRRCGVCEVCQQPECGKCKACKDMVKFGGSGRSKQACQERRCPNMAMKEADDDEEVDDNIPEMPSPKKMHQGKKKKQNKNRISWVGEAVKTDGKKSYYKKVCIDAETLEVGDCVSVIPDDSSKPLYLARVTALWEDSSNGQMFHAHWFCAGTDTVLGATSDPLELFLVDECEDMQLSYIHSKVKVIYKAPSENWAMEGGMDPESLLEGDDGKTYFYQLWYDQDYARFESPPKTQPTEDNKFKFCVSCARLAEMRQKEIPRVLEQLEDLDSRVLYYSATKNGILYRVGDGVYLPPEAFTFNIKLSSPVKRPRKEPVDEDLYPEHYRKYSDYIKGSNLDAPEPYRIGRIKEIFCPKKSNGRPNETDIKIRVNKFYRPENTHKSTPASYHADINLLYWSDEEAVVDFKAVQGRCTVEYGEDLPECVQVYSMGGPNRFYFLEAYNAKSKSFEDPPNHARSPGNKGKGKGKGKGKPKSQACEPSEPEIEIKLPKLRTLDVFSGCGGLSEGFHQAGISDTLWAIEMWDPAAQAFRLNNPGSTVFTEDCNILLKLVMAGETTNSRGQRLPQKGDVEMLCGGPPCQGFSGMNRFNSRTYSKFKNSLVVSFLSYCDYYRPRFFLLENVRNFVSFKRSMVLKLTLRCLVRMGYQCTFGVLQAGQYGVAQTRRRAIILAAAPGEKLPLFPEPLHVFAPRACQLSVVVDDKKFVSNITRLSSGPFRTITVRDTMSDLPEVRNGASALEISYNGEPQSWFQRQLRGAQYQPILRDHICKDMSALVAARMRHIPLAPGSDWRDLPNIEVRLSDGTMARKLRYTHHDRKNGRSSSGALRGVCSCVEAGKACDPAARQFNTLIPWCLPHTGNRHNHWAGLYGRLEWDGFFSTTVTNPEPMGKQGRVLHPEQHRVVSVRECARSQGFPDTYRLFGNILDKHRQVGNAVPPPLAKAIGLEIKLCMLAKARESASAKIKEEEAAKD

Molecule `COc1cc(C(=O)Nc2ccc(C(C)=O)cc2)ccc1C` [Compound 01, N-(4-acetylphenyl)-3-methoxy-4-methylbenzamide] returned a half-inhibitory concentration (IC50) against DNMT-1 of 20 µM.
For the molecule `COc1cc(C(=O)Nc2ccc(C(=O)N3CCN(C(C)C)CC3)cc2)ccc1C` [Compound 02], on DNMT-1, the “In vitro activity (IC50) compared to ZINC15602870” value is listed as “improved IC50 values” and the IC50 was determined as 15 µM.
`COc1cc(C(=O)Nc2ccc(C(=O)N3CCN(C(C)=O)CC3)cc2)ccc1C` [Compound 03]: on DNMT-1, the “In vitro activity (IC50) compared to ZINC15602870” value is on record as “improved IC50 values” and inhibition was half-maximal at 7 µM (IC50).
In the same order, the values of `COc1cc(C(=O)Nc2ccc(S(=O)(=O)NC(=O)c3ccccc3)cc2)ccc1C` [Compound 04] are “improved IC50 values” and 13 µM.
In the case of `COC(=O)CCSc1n[nH]c(NC(=O)c2ccc(C)c(OC)c2)n1` [Compound 05], the IC50 against DNMT-1 worked out at 18 µM.
Turning to `COCCCSc1n[nH]c(NC(=O)c2ccc(C)c(OC)c2)n1` [Compound 06], it took 38 µM to reach half-maximal inhibition against DNMT-1 (IC50).
Consider `CCC(Sc1n[nH]c(NC(=O)c2ccc(C)c(OC)c2)n1)C(=O)OC` (stereo not shown) [Compound 07], for which, on DNMT-1, it took 9 µM to reach half-maximal inhibition (IC50).
Regarding `COc1cc(C(=O)Nc2nc(SCC3OCCO3)n[nH]2)ccc1C` [Compound 08], at DNMT-1, half-maximal inhibition (IC50) was put at 30 µM.
Take `CCOC(=O)CCCSc1n[nH]c(NC(=O)c2ccc(C)c(OC)c2)n1` [Compound 09]: the half-maximal inhibitory concentration (IC50) on DNMT-1 stood at 22 µM.
For the molecule `COc1ccc(C(=O)Nc2ccc(C(=O)N3CCN(C(C)=O)CC3)cc2)cc1OC` [Compound 10], the DNMT-1 expression result in the assay with H226 cells (Figure 5B) is given as “no effects on DNMT-1 expression”. Besides, the PSEN-1 expression entry in the assay with H226 cells (Figure 5B) is “inhibited PSEN-1 expression”. The “accumulation of NICD in the nuclear subfraction” value in the assay on H226 cells (iDNMT low 0.1, medium 1, high 10 μmol/L, dose-dependent) was “reduced accumulation of NICD in the nuclear subfraction”. The same molecule yielded a 50% inhibitory concentration (IC50) against DNMT-1 of 4.71 µM. In addition, the “methylation of the miR-27-3p promoter region” value in the assay on Notch pathway (Figure 5A) is reported as “decreased methylation of the miR-27-3p promoter region”. In addition, the “expression of PSEN-1 or downstream factors of the Notch pathway” value in the assay on Notch pathway (N-cadherin, vimentin, survivin, cIAP-1, cIAP-2, Figure 5A) is on record as “inhibit the expression of PSEN-1 or downstream factors of the Notch pathway”. Also, the LSCC tumor volumes result in the assay on H226 LSCC cells (2 mg/kg iDNMT oral combined with 2 min RFA at 55°C) was “significantly induced shrinkage of LSCC tumor volumes”. Besides, the “EMT process of LSCC cells in subcutaneous tissues” value in the assay on H226 LSCC cells (iDNMT with RFA 55°C for 2 min) is on record as “inhibited the EMT process”. In addition, the “miR-27-3p expression in tumor tissues” value with H226 LSCC cells (oral, 2 mg/kg, leads to inhibition of the Notch pathway) is given as “significantly upregulated miR-27-3p expression”. Also, the “subcutaneous growth of H226 cells (antitumor activity)” value with H226 LSCC cells (oral, iDNMT alone, 2 mg/kg) is “weak antitumor activity”. Further, the “subcutaneous growth of H226 cells” value is “most significant inhibition” in the assay on H226 LSCC cells (oral, iDNMT alone, 5 mg/kg) and “most significant inhibition” in the assay with H226 LSCC cells (oral, iDNMT alone, 10 mg/kg).
The molecule `CCC(Sc1n[nH]c(NC(=O)c2ccc(OC)c(OC)c2)n1)C(=O)OC` (stereo not shown) [Compound 11] displayed a concentration for half-maximal inhibition (IC50) against DNMT-1 of 6 µM.
